The values that follow come from patent publication US12492188B2, “1H-benzo[D]imidazole derivatives as TLR9 inhibitors for the treatment of fibrosis” (BRISTOL-MYERS SQUIBB COMPANY, priority 2020, dated 2025).

What is called IC50 is the point on the concentration scale where inhibition reaches its midpoint.

Common to all, as to format: cell-based
The target in assay [1] is T1, human TLR8 (Homo sapiens, UniProt Q9NR97).
T1 construct: host or cells: HEK-Blue cells (HEK293-derived reporter line)
T1 sequence (Q9NR97 27-1041): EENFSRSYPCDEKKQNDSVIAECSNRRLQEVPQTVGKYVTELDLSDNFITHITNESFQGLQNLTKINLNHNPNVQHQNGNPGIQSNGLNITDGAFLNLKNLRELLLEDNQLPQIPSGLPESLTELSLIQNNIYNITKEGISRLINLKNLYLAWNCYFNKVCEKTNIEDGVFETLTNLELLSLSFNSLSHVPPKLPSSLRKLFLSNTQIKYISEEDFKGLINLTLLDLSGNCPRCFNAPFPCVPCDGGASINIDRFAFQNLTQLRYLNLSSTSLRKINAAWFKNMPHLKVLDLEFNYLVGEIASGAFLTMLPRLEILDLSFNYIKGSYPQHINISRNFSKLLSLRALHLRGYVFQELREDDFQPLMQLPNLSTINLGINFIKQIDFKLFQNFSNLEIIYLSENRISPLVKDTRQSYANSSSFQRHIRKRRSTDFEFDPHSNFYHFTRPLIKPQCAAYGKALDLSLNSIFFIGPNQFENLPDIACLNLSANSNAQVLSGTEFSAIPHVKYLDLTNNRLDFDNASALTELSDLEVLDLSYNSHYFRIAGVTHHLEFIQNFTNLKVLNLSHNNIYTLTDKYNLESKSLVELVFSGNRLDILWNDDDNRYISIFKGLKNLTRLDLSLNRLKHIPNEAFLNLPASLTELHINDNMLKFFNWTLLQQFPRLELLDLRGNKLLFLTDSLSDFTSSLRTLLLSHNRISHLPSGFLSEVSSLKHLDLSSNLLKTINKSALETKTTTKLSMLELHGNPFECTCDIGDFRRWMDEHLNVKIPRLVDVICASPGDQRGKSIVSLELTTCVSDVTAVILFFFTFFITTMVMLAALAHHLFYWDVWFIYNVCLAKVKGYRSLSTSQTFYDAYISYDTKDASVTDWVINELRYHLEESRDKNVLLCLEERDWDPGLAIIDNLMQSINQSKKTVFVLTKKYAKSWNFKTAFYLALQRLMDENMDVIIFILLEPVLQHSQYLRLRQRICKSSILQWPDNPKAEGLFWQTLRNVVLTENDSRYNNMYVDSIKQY
Briefly: TLR8 inhibition reporter assay (HEK-Blue cells, secreted embryonic alkaline phosphatase reporter). Conditions: HEK-Blue cells overexpressing human TLR8, stimulated with R848 15.9 μM; read-out: TLR 8 IC50. In outline:
(§1)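 Agonist-driven SEAP output was measured in HEK-Blue reporter cells carrying human TLR7 (gardiquimod 7.5 μM), TLR8 (R848 15.9 μM) or TLR9 (ODN2006 5 nM). Compounds at 0.05 nM–50 μM final were added 30 min before stimulation at room temperature. After 22 h at 37 °C, percent inhibition was taken against agonist/DMSO wells and a reference inhibitor.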

For assay [2], the target named is T2, human TLR7 (Homo sapiens, UniProt Q9NYK1).
T2 construct: host or cells: HEK-Blue cells (HEK293-derived reporter line)
T2 sequence (Q9NYK1 27-1049): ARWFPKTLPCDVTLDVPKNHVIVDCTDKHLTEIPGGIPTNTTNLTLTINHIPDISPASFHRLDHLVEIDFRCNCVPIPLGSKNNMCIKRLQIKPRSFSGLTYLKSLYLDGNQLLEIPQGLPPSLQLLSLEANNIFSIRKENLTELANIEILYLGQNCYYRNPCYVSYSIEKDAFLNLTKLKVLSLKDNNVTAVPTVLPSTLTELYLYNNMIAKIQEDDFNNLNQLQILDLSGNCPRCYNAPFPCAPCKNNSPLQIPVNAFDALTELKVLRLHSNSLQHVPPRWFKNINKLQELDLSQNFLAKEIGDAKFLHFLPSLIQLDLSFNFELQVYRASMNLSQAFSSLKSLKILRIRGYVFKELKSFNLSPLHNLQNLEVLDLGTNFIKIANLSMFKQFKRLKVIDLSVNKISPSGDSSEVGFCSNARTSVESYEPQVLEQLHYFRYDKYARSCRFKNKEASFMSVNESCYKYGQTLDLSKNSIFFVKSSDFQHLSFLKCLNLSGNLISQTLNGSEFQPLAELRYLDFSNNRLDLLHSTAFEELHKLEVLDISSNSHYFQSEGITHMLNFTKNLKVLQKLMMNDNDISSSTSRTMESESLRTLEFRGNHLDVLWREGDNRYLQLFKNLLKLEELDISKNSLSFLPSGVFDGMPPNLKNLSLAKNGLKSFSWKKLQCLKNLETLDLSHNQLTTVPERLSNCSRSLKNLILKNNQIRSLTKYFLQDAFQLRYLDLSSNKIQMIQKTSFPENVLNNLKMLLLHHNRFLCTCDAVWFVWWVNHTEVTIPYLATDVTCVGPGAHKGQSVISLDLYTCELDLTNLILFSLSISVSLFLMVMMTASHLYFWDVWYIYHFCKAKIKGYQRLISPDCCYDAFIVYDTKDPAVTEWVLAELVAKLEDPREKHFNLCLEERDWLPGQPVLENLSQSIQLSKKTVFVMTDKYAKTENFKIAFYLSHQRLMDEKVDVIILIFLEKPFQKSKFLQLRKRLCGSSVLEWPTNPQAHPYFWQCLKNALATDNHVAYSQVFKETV
The experiment in a line: TLR7 inhibition reporter assay (HEK-Blue cells, secreted embryonic alkaline phosphatase reporter). Conditions: HEK-Blue cells overexpressing human TLR7, stimulated with gardiquimod 7.5 μM; read-out: TLR 7 IC50. The method, boiled down:
as §1

Assay [3] concerns the target T3, human TLR9 (Homo sapiens, UniProt Q9NR96).
T3 construct: host or cells: HEK-Blue cells (HEK293-derived reporter line)
T3 sequence (Q9NR96 26-1032): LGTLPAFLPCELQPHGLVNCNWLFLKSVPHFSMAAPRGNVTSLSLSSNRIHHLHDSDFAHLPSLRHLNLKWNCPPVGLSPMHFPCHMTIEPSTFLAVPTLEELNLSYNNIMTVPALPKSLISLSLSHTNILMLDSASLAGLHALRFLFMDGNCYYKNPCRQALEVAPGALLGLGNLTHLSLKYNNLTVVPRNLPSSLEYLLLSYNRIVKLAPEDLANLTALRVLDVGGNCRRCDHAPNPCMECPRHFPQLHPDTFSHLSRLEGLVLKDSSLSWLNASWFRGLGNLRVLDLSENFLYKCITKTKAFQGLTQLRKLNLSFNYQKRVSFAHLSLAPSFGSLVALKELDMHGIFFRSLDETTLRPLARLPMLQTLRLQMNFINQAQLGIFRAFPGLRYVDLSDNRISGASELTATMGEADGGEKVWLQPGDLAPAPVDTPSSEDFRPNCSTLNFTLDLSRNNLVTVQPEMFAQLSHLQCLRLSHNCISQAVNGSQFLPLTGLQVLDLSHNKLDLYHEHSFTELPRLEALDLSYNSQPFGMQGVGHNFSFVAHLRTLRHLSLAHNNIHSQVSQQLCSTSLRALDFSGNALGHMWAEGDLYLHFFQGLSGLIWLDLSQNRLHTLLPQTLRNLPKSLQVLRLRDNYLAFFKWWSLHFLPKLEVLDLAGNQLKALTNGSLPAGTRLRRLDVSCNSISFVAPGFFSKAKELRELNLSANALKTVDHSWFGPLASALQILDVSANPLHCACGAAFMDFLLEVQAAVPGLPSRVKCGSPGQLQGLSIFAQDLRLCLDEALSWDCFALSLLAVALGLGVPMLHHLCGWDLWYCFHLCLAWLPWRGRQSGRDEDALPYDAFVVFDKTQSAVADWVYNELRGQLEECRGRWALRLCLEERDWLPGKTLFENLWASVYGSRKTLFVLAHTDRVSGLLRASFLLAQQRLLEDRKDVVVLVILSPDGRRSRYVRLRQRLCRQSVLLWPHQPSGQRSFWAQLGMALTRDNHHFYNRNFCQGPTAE
The experiment in a line: TLR9 inhibition reporter assay (HEK-Blue cells, secreted embryonic alkaline phosphatase reporter). In outline:
as §1

The mark [4] stands for this setting: HEK-Blue cells overexpressing human TLR9, stimulated with ODN2006 5 nM, read-out: TLR 9 IC50.

Where two headings read alike, the source gives them in different places. A value given as a limit tells only on which side of the number the result lay.

Consider `Cn1c(-c2ccc(S(C)(=O)=O)cc2)nc2cc(C3CCN(C4CCN(C5CC5)CC4)CC3)c(F)cc21` [Example 241, 5-(1′-cyclopropyl-[1,4′-bipiperidin]-4-yl)-6-fluoro-1-methyl-2-(4-(methylsulfonyl)phenyl)-1H-benzo[d]imidazole], for which the half-maximal inhibitory concentration (IC50) was > 50 µM in assay [1], > 50 µM in assay [2], 1700 nM in assay [3] and 1710 nM in assay [3] (setting [4]).
In the case of `Cn1c(-c2ccc(S(C)(=O)=O)cc2)nc2cc(C3CCN(C4CCN(CC5CC5)CC4)CC3)c(F)cc21` [Example 242, 5-(1′-(cyclopropylmethyl)-[1,4′-bipiperidin]-4-yl)-6-fluoro-1-methyl-2-(4-(methylsulfonyl)phenyl)-1H-benzo[d]imidazole], the half-inhibitory concentration (IC50) in assay [1] was > 50 µM; in assay [2], 14.2 µM; in assay [3] it was 160 nM; in assay [3] (setting [4]) it was 158 nM.
As for `Cn1c(-c2ccc(S(C)(=O)=O)cc2)nc2cc(C3CCN(C4CCN(C5CCC5)CC4)CC3)c(F)cc21` [Example 243, 5-(1′-cyclobutyl-[1,4′-bipiperidin]-4-yl)-6-fluoro-1-methyl-2-(4-(methylsulfonyl)phenyl)-1H-benzo[d]imidazole], the IC50 in assay [1] was > 50 µM; in assay [2] it was > 50 µM; in assay [3], 940 nM; in assay [3] (setting [4]) it was 943 nM.
Consider `Cn1c(-c2ccc(S(C)(=O)=O)cc2)nc2cc(C3CCN(C4CCN(C5COC5)CC4)CC3)c(F)cc21` [Example 244, 6-fluoro-1-methyl-2-(4-(methylsulfonyl)phenyl)-5-(1′-(oxetan-3-yl)-[1,4′-bipiperidin]-4-yl)-1H-benzo[d]imidazole], for which the IC50 in assay [1] is > 50 µM; in assay [2], > 50 µM; in assay [3], 3600 nM; in assay [3] (setting [4]), 3570 nM.
For the compound `Cn1c(-c2ccc(S(C)(=O)=O)cc2)nc2cc(C3CCN(C4CCN(C5CCOCC5)CC4)CC3)c(F)cc21` [Example 245, 6-fluoro-1-methyl-2-(4-(methylsulfonyl)phenyl)-5-(1′-(tetrahydro-2H-pyran-4-yl)-[1,4′-bipiperidin]-4-yl)-1H-benzo[d]imidazole], the IC50 in assay [1] is > 50 µM; in assay [2], > 50 µM; in assay [3], 1100 nM; in assay [3] (setting [4]), 1060 nM.
Take `COCCN1CCC(N2CCC(c3cc4nc(-c5ccc(S(C)(=O)=O)cc5)n(C)c4cc3F)CC2)CC1` [Example 246, 6-fluoro-5-(1′-(2-methoxyethyl)-[1,4′-bipiperidin]-4-yl)-1-methyl-2-(4-(methylsulfonyl)phenyl)-1H-benzo[d]imidazole]: the half-maximal inhibitory concentration (IC50) is > 50 µM in assay [1], 26.2 µM in assay [2], 400 nM in assay [3] and 398 nM in assay [3] (setting [4]).
For `CC(C)CN1C2CCC1CC(N1CCC(c3cc4nc(-c5ccc(S(C)(=O)=O)cc5)n(C)c4cc3F)CC1)C2` (stereo not shown) [Example 247, 6-fluoro-5-(1-(8-isobutyl-8-azabicyclo[3.2.1]octan-3-yl)piperidin-4-yl)-1-methyl-2-(4-(methylsulfonyl)phenyl)-1H-benzo[d]imidazole], the IC50 in assay [1] is > 50 µM; in assay [2] it was 21.1 µM; in assay [3], 30 nM; in assay [3] (setting [4]) it was 30 nM.
On to `CC(C)CN1C2CCC1CC(N1CCC(c3cc4nc(-c5ccc(S(C)(=O)=O)cc5)n(C)c4cc3F)CC1)C2` (stereo not shown) [Example 248, 6-fluoro-5-(1-(8-isobutyl-8-azabicyclo[3.2.1]octan-3-yl)piperidin-4-yl)-1-methyl-2-(4-(methylsulfonyl)phenyl)-1H-benzo[d]imidazole], for which the IC50 in assay [1] was > 50 µM; in assay [2], > 50 µM; in assay [3], 78 nM; in assay [3] (setting [4]) it was 78 nM.
Take `Cn1c(-c2ccc(S(C)(=O)=O)cc2)nc2cc(C3CCN(C4CC5CCC(C4)N5C4CCC4)CC3)c(F)cc21` (stereo not shown) [Example 251, 5-(1-(8-cyclobutyl-8-azabicyclo[3.2.1]octan-3-yl)piperidin-4-yl)-6-fluoro-1-methyl-2-(4-(methylsulfonyl)phenyl)-1H-benzo[d]imidazole]: the IC50 was > 50 µM in assay [1], 19.5 µM in assay [2], 71 nM in assay [3] and 71 nM in assay [3] (setting [4]).
Turning to `COCCN1C2CCC1CC(N1CCC(c3cc4nc(-c5ccc(S(C)(=O)=O)cc5)n(C)c4cc3F)CC1)C2` (stereo not shown) [Example 257, 6-fluoro-5-(1-(8-(2-methoxyethyl)-8-azabicyclo[3.2.1]octan-3-yl)piperidin-4-yl)-1-methyl-2-(4-(methylsulfonyl)phenyl)-1H-benzo[d]imidazole], the IC50 is > 50 µM in assay [1], 30.7 µM in assay [2], 49 nM in assay [3] and 49 nM in assay [3] (setting [4]).
